Results published in US20240299326A1, “METHODS AND COMPOSITIONS FOR TREATING CANCER” (Onconova Therapeutics, Inc., priority 2021, published 2024).
Entries after “also recorded” stand apart in the source; their conditions may differ.

Tests used:
[1] = test system: RDEB SCC keratinocytes; assay: Cell death of RDEB SCC keratinocytes after 48 hours exposure, crystal violet staining / phase contrast; assay type: cell-based
Experimental: (§1) Panel A. Cells were seeded at high density and exposed to Rigosertib or vehicle control for 48 hours after which cells were fixed and stained with crystal violet. Panel B. Phase contrast images of unfixed cells in culture after given treatment of either control (left) or Rigosertib (1 μM, right).

[2] = test system: RDEB-associated locally advanced/metastatic squamous cell carcinoma (SCC); assay: Phase 2 open-label single arm clinical study, tumor response (RECIST, MRI, clinical exam, histology); assay type: in vivo, patients
Experimental: The study had two primary endpoints. […] The second primary endpoint was to evaluate the safety and tolerability of rigosertib in the population. Secondary study endpoints included quality of life and a biomarker analysis performed on archival tissue from all patients. Patients were dosed for up to one year, with trial duration anticipated to be approximately two-and-a-half years.
Intravenous dosing: For continuous IV infusion as Rigosertib, sodium salt concentrate, 75 mg/mL, was formulated to contain 75 mg of Rigosertib sodium salt per mL (equivalent to 75 mg of Rigosertib sodium per mL) as a sterile solution in polyethylene glycol 400 (PEG 400) containing a small amount of sodium hydroxide for pH adjustment. Rigosertib.Na 75 mg/mL was packaged in single-use glass vials with Teflon-lined rubber stoppers containing 24 mL of drug product (1800 mg). Just prior to dosing, the Rigosertib concentrate (i.e. 1 glass vial, 24 mL) was diluted to a final volume of 500 ml in 0.9% sodium chloride for injection.
Efficacy Assessments: Overall response rate (ORR) was defined as the proportion of patients who achieved either a CR or a PR. Responses of complete remission (CR), partial remission (PR), mCR, SD, failure, and PD were determined by RECIST criteria. The number and percent of patients with CR, PR, mCR, SD, Failure or PD were summarized.
Response per RECIST criteria: Efficacy assessments included an initial tumor assessment at week 12 (±3 days) after first dose. Further tumor assessments were completed every 12 weeks (±3 days). Study evaluations were performed according to RECIST 1.1 criteria. High resolution CT with oral or IV contrast or contrast-enhanced MRI were used as imaging modalities for assessing radiographic tumor response. Screening/Baseline assessments were within 4 weeks of first dose of study drug. Brain MRI was used as an imaging method for evaluating CNS metastasis, and an assessment was required during screening/baseline and End of Therapy or as clinically indicated.
Target lesions: When more than one measurable lesion was present at baseline, all lesions up to a maximum of 5 lesions total (and a maximum of two lesions per site), representative of all involved sites, were investigated as target lesions and are recorded and measured at baseline. Target lesions were selected on the basis of size (lesions with the longest diameter) and were representative of all involved sites. A sum of the diameters (longest for non-nodal lesions, short axis for nodal lesions) for all target lesions were calculated and reported as the baseline sum diameters. If lymph nodes were included in the sum, only the short axis was added into the sum. The baseline sum diameters were used as reference to characterize any objective tumor regression in the measurable dimension of the disease. […]

[3] = test system: SCC RDEB16 keratinocytes; assay: Tumor xenograft of SCC RDEB16 keratinocytes, tumor volume by calipers; assay type: in vivo, Balb/c SCID mice; conditions: subcutaneous inoculation; dosing after tumors reached 100 mm^3, administered 6 times; harvested day 35; FIG. 2
Experimental: SCC RDEB16 keratinocytes were inoculated subcutaneously to Balb/c SCID mice. After tumors reached 100 mm^3, vehicle control, Rigosertib or Compound 1 (ATP-competitive inhibitor) were administered 6 times and tumor volume was measured with calipers. Tumors were harvested and photographed at day 35.

[4] = Phase 2 open-label single arm clinical study, safety and tolerability; assay type: in vivo, patients; conditions: single RDEB patient, CIV infusions
Experimental: A phase 2, open-label single arm was conducted. The study was designed to assess the efficacy and safety of Rigosertib in patients with recessive dystrophic epidermolysis bullosa (RDEB)-associated locally advanced/metastatic squamous cell carcinoma (SCC).
In addition to the assessment of safety and tolerability, efficacy was measured by the overall response rate as assessed by RECIST. Patients were treated until RECIST progression criteria were met (i.e. 20% increase in tumor diameter or appearance of new malignant lesions) for 12 consecutive months or until an unacceptable toxicity or intolerance, or until remission.
The study had two primary endpoints. The first was to determine the anti-tumor activity of rigosertib in RDEB patients with advanced SCC who had failed prior standard of care through the overall response rate (ORR), defined as the proportion of patients who achieved either a complete response (CR) or a partial response (PR). The second primary endpoint was to evaluate the safety and tolerability of rigosertib in the population. Secondary study endpoints included quality of life and a biomarker analysis performed on archival tissue from all patients. Patients were dosed for up to one year, with trial duration anticipated to be approximately two-and-a-half years. […]

[5] = test system: normal primary keratinocytes; assay: Effect on normal primary keratinocytes after 48 hours exposure, crystal violet staining / phase contrast; assay type: cell-based; conditions: FIG. 1
Experimental: as §1

[6] = one RDEB patient, intravenous rigosertib, 12 week MRI and clinic visit

SMILES: COc1cc(OC)c(/C=C/S(=O)(=O)Cc2ccc(OC)c(NCC(=O)O)c2)c(OC)c1 [Rigosertib, (E)-2-(5-((2,4,6-trimethoxystyrylsulfonyl)methyl)-2-methoxyphenylamino)acetic acid]
- cell death in RDEB SCC keratinocytes ([1]; 48 hours exposure, Rigosertib 1 μM in phase contrast images, FIG. 1): induces cell death
- specificity / therapeutic window separating tumor and normal cells ([1]; preclinical models, RDEB SCC keratinocytes vs normal cells): largest therapeutic window separating tumor and normal cells
- metastatic disease after trial completion ([2]; RDEB patient, 17 treatment cycles): without signs of metastatic disease
- remission of target lesions after trial completion ([2]; RDEB patient, 72 hr CIV infusions 1800 mg/24 h days 1-3, 17 treatment cycles): sustained clinical and histological remission of all target lesions
- histology of biopsied target lesions (left hand, right elbow) ([2]; V25 (day 169-175)): no histological signs of malignancy
- resolution of squamous cell target lesions (left hand), clinical exam and MRI [2, 6]: complete resolution of two of three squamous cell target lesions
- third target lesion (right elbow) [2, 6]: reduction in the third target lesion
- tumor growth (tumor volume) of RDEB SCC keratinocytes in vivo [3]: inhibits RDEB SCC keratinocyte grown in vivo
- observed adverse effects [4]: CTCAE grade II irritative cystitis; also recorded: alopecia; also recorded: recurrent episode of bacteriaemia; also recorded: nausea; also recorded: increased lesional pain; also recorded: amenorrhea
- safety and tolerability [4]: favorable
- effect on normal primary keratinocytes [5]: without affecting normal primary keratinocytes
